Laboratory results reported in ChEMBL document CHEMBL4507305, “Data for DCP probe TP-024” (2021).

Legend:
[1] = target: AP2-associated protein kinase 1 (Homo sapiens) (UniProt Q2M2I8); conditions: Compound concentration 1000.0 nM
[2] = tested on: Tyrosine-protein kinase ABL1 (Homo sapiens), P00519 [Q252H]; conditions: Compound concentration 1000.0 nM
[3] = target: Atypical kinase COQ8B, mitochondrial (Homo sapiens) (UniProt Q96D53); conditions: Compound concentration 1000.0 nM
[4] = target: 5'-AMP-activated protein kinase catalytic subunit alpha-2 (Homo sapiens) (UniProt P54646); conditions: Compound concentration 1000.0 nM
[5] = target: Tyrosine-protein kinase Blk (Homo sapiens) (UniProt P51451); conditions: Compound concentration 1000.0 nM
Tyrosine-protein kinase Blk (Homo sapiens), sequence (P51451 2-505 limits assumed): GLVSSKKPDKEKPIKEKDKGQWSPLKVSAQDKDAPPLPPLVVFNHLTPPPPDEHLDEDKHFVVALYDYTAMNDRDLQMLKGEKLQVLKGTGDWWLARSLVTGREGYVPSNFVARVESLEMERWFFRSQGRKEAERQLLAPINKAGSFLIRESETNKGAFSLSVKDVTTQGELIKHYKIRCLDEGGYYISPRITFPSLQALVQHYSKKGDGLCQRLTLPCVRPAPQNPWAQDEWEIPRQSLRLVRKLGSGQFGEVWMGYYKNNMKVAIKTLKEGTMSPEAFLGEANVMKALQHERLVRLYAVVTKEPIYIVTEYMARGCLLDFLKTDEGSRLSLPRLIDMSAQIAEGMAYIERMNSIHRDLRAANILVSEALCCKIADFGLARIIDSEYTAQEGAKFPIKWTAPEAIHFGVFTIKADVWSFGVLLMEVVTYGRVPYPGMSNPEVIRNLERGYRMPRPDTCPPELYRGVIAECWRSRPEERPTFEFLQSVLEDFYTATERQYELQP

[6] = target: Bone morphogenetic protein receptor type-1A (Homo sapiens) (UniProt P36894); conditions: Compound concentration 1000.0 nM
[7] = target: Calcium/calmodulin-dependent protein kinase kinase 2 (Homo sapiens) (UniProt Q96RR4); conditions: Compound concentration 1000.0 nM
[8] = target: Cyclin-dependent kinase 11B (Homo sapiens) (UniProt P21127); conditions: Compound concentration 1000.0 nM
Cyclin-dependent kinase 11B (Homo sapiens), sequence (P21127 whole entry): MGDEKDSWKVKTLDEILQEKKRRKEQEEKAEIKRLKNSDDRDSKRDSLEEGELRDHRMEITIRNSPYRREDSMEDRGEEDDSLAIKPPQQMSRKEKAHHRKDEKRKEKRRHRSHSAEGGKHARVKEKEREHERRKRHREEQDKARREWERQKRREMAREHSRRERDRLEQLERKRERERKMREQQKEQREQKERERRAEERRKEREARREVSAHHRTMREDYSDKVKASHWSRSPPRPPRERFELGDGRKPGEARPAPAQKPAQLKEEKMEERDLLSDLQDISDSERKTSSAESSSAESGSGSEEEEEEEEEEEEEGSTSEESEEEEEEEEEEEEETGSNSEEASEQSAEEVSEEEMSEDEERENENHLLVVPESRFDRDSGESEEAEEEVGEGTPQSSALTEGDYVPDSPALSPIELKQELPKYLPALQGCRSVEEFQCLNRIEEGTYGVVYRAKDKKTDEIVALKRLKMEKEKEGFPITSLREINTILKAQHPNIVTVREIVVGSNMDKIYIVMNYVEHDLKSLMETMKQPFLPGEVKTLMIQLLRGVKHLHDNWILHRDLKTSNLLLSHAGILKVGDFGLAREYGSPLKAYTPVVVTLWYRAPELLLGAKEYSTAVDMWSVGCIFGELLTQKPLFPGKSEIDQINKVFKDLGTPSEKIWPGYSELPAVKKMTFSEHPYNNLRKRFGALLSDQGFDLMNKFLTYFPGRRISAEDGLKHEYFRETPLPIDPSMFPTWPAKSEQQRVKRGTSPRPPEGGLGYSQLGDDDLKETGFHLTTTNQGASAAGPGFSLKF

[9] = target: Cyclin-dependent kinase 4 (Homo sapiens) (UniProt P11802); conditions: Compound concentration 1000.0 nM
[10] = target: Casein kinase I isoform alpha (Homo sapiens) (UniProt P48729); conditions: Compound concentration 1000.0 nM
[11] = target: Casein kinase I isoform gamma-3 (Homo sapiens) (UniProt Q9Y6M4); conditions: Compound concentration 1000.0 nM
[12] = target: Myotonin-protein kinase (Homo sapiens) (UniProt Q09013); conditions: Compound concentration 1000.0 nM
Myotonin-protein kinase (Homo sapiens), sequence (Q09013 whole entry): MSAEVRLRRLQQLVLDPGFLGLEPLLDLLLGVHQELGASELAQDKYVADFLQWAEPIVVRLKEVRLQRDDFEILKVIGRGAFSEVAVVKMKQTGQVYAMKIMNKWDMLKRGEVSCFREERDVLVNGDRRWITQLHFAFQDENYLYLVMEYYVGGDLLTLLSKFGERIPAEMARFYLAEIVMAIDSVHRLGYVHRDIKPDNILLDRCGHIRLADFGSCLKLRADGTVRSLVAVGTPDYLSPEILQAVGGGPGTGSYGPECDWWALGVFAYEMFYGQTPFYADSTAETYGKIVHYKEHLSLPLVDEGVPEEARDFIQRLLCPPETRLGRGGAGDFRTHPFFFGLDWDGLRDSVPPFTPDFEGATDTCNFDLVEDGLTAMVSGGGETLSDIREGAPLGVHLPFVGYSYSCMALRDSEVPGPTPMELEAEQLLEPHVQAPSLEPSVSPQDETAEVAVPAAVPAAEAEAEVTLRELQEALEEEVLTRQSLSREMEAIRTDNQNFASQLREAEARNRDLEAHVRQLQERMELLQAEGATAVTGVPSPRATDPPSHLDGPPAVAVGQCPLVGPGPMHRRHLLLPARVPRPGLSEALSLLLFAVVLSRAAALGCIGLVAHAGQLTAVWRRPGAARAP

[13] = target: Serine/threonine-protein kinase 17A (Homo sapiens) (UniProt Q9UEE5); conditions: Compound concentration 1000.0 nM
Serine/threonine-protein kinase 17A (Homo sapiens), sequence (Q9UEE5 whole entry): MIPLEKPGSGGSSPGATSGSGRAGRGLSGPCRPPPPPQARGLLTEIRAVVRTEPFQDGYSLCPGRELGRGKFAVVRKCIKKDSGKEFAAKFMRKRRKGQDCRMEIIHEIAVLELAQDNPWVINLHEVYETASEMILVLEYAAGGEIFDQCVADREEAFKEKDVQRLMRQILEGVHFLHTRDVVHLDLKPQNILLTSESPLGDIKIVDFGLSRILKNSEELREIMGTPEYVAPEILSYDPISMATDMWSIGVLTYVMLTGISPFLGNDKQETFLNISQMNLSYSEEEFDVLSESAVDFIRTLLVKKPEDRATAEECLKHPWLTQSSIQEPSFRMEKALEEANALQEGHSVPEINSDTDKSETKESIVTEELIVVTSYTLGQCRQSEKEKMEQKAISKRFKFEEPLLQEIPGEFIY

[14] = target: Ephrin type-A receptor 1 (Homo sapiens) (UniProt P21709); conditions: Compound concentration 1000.0 nM
[15] = target: Mitogen-activated protein kinase 4 (Homo sapiens) (UniProt P31152); conditions: Compound concentration 1000.0 nM
[16] = target: Serine/threonine-protein kinase/endoribonuclease IRE1 (Homo sapiens) (UniProt O75460); conditions: Compound concentration 1000.0 nM
[17] = target: Tyrosine-protein kinase Fer (Homo sapiens) (UniProt P16591); conditions: Compound concentration 1000.0 nM
[18] = tested on: eIF-2-alpha kinase GCN2 (Homo sapiens), Q9P2K8 [S808G]; conditions: Compound concentration 1000.0 nM
[19] = target: Rhodopsin kinase GRK7 (Homo sapiens) (UniProt Q8WTQ7); conditions: Compound concentration 1000.0 nM
[20] = target: Inhibitor of nuclear factor kappa-B kinase subunit alpha (Homo sapiens) (UniProt O15111); conditions: Compound concentration 1000.0 nM
[21] = target: Insulin receptor (Homo sapiens) (UniProt P06213); conditions: Compound concentration 1000.0 nM
[22] = target: Mitogen-activated protein kinase kinase kinase 15 (Homo sapiens) (UniProt Q6ZN16); conditions: Compound concentration 1000.0 nM
[23] = target: Mitogen-activated protein kinase kinase kinase 2 (Homo sapiens) (UniProt Q9Y2U5); conditions: Compound concentration 1000.0 nM
[24] = target: Mitogen-activated protein kinase kinase kinase 11 (Homo sapiens) (UniProt Q16584); conditions: Compound concentration 1000.0 nM
[25] = target: Serine/threonine-protein kinase Nek1 (Homo sapiens) (UniProt Q96PY6); conditions: Compound concentration 1000.0 nM
[26] = target: Platelet-derived growth factor receptor alpha (Homo sapiens) (UniProt P16234); conditions: Compound concentration 1000.0 nM
[27] = target: Phosphatidylinositol 4,5-bisphosphate 3-kinase catalytic subunit delta isoform (Homo sapiens) (UniProt O00329); conditions: Compound concentration 1000.0 nM
[28] = target: Serine/threonine-protein kinase pim-1 (Homo sapiens) (UniProt P11309); conditions: Compound concentration 1000.0 nM
Serine/threonine-protein kinase pim-1 (Homo sapiens), sequence (P11309 whole entry, looked up): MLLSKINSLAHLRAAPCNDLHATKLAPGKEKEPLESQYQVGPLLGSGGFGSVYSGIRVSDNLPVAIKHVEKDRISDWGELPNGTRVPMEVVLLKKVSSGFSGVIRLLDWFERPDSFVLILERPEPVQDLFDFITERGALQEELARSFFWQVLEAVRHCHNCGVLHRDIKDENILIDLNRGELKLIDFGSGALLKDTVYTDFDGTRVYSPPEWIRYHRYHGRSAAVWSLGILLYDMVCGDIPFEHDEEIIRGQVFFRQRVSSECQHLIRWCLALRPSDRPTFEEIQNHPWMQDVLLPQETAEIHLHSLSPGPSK

[29] = target: cAMP-dependent protein kinase catalytic subunit beta (Homo sapiens) (UniProt P22694); conditions: Compound concentration 1000.0 nM
[30] = target: Protein kinase C theta type (Homo sapiens) (UniProt Q04759); conditions: Compound concentration 1000.0 nM
[31] = target: cGMP-dependent protein kinase 1 (Homo sapiens) (UniProt Q13976); conditions: Compound concentration 1000.0 nM
[32] = target: cAMP-dependent protein kinase catalytic subunit PRKX (Homo sapiens) (UniProt P51817); conditions: Compound concentration 1000.0 nM
cAMP-dependent protein kinase catalytic subunit PRKX (Homo sapiens), sequence (P51817 whole entry): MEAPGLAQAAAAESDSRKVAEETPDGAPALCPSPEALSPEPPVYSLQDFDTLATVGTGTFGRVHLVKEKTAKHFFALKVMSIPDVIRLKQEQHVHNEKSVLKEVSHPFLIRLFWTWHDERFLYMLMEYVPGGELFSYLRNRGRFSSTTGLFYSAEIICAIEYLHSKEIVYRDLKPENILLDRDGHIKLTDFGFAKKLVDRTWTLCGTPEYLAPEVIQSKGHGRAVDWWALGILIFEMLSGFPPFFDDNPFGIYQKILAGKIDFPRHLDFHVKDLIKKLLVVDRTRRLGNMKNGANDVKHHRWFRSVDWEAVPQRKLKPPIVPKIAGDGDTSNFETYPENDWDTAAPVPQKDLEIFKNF

[33] = target: Ribosomal protein S6 kinase alpha-3 (Homo sapiens) (UniProt P51812); conditions: Compound concentration 1000.0 nM
[34] = target: Ribosomal protein S6 kinase alpha-6 (Homo sapiens) (UniProt Q9UK32); conditions: Compound concentration 1000.0 nM
Ribosomal protein S6 kinase alpha-6 (Homo sapiens), sequence (Q9UK32 whole entry): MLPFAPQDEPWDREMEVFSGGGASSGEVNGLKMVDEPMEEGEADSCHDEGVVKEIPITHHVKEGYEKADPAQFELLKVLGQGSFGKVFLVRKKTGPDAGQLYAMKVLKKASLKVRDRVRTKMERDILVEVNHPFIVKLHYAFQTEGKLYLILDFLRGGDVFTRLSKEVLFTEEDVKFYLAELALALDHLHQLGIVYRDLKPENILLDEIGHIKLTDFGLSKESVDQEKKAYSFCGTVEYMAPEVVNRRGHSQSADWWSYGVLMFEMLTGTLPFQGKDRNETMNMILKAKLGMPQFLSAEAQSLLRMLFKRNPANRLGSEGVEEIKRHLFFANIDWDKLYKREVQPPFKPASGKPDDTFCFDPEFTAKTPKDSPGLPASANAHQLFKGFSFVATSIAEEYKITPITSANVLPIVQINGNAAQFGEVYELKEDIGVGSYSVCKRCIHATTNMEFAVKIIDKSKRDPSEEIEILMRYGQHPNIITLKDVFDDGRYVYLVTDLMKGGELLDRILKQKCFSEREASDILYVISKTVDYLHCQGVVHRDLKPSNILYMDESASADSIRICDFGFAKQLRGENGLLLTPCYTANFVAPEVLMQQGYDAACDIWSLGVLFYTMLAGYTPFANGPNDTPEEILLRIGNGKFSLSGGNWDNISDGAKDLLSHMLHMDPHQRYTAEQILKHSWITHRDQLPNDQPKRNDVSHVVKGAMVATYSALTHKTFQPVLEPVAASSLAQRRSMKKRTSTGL

[35] = target: Serine/threonine-protein kinase SBK1 (Homo sapiens) (UniProt Q52WX2); conditions: Compound concentration 1000.0 nM
[36] = target: Serine/threonine-protein kinase Sgk1 (Homo sapiens) (UniProt O00141); conditions: Compound concentration 1000.0 nM
[37] = target: Serine/threonine-protein kinase Sgk2 (Homo sapiens) (UniProt Q9HBY8); conditions: Compound concentration 1000.0 nM
[38] = target: SRSF protein kinase 3 (Homo sapiens) (UniProt Q9UPE1); conditions: Compound concentration 1000.0 nM
[39] = target: Serine/threonine-protein kinase 16 (Homo sapiens) (UniProt O75716); conditions: Compound concentration 1000.0 nM
Serine/threonine-protein kinase 16 (Homo sapiens), sequence (O75716 whole entry): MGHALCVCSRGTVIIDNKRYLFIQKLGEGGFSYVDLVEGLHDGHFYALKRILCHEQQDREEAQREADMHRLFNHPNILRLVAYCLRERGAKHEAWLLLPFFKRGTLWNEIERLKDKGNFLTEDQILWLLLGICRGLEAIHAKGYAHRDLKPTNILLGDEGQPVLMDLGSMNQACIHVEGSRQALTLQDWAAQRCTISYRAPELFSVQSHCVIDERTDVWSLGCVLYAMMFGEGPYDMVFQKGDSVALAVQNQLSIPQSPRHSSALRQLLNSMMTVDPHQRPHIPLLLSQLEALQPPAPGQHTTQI

[40] = target: TGF-beta receptor type-2 (Homo sapiens) (UniProt P37173); conditions: Compound concentration 1000.0 nM
[41] = target: Non-receptor tyrosine-protein kinase TYK2 (Homo sapiens) (UniProt P29597); conditions: Compound concentration 1000.0 nM
[42] = target: Phosphatidylinositol 3-kinase catalytic subunit type 3 (Homo sapiens) (UniProt Q8NEB9); conditions: Compound concentration 1000.0 nM
[43] = target: Delta-type opioid receptor (Homo sapiens) (UniProt P41143); conditions: Compound concentration 10.0 uM
[44] = target: Kappa-type opioid receptor (Homo sapiens) (UniProt P41145); conditions: Compound concentration 10.0 uM
[45] = target: Muscarinic acetylcholine receptor M1 (Homo sapiens) (UniProt P11229); conditions: Compound concentration 10.0 uM

AP2-associated protein kinase 1 (Homo sapiens), sequence (Q2M2I8 whole entry, looked up): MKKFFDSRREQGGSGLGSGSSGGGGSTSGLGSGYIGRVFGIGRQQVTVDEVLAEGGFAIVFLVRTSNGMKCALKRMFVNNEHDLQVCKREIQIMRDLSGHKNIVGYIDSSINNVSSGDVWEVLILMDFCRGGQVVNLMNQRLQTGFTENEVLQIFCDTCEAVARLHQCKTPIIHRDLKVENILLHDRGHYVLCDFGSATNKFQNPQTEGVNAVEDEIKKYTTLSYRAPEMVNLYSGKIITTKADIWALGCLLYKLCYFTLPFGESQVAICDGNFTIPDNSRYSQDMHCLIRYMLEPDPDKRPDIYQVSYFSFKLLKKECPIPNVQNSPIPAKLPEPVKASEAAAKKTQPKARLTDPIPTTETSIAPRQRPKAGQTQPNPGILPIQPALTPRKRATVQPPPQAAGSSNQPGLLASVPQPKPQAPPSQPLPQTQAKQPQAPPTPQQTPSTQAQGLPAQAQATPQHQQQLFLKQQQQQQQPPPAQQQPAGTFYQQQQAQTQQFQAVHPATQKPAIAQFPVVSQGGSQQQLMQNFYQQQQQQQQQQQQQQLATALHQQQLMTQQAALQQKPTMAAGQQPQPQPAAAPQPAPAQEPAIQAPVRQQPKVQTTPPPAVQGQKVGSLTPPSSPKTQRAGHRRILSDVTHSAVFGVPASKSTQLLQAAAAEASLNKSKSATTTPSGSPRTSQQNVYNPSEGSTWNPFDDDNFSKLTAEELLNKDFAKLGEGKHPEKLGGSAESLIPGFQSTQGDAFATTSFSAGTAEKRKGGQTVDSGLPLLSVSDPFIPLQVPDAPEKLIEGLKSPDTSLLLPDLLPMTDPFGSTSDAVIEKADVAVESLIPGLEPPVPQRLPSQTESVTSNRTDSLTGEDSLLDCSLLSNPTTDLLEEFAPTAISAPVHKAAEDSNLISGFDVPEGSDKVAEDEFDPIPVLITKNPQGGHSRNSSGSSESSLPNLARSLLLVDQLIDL

Cc1cc(-n2nc(Cc3cc(F)cc(C(F)(F)F)c3)nc2C)ccc1C(N)=O [TP-024]
residual activity [1]: 100%
residual activity [2]: 94%
residual activity [3]: 100%
residual activity [4]: 100%
residual activity [5]: 100%
residual activity [6]: 85%
residual activity [7]: 100%
residual activity [8]: 100%
residual activity [9]: 100%
residual activity [10]: 100%
residual activity [11]: 95%
residual activity [12]: 100%
residual activity [13]: 100%
residual activity [14]: 100%
residual activity [15]: 100%
residual activity [16]: 100%
residual activity [17]: 79%
residual activity [18]: 100%
residual activity [19]: 100%
residual activity [20]: 100%
residual activity [21]: 99%
residual activity [22]: 100%
residual activity [23]: 100%
residual activity [24]: 84%
residual activity [25]: 54%
residual activity [26]: 100%
residual activity [27]: 52%
residual activity [28]: 100%
residual activity [29]: 100%
residual activity [30]: 100%
residual activity [31]: 100%
residual activity [32]: 100%
residual activity [33]: 100%
residual activity [34]: 89%
residual activity [35]: 98%
residual activity [36]: 100%
residual activity [37]: 100%
residual activity [38]: 100%
residual activity [39]: 91%
residual activity [40]: 100%
residual activity [41]: 100%
residual activity [42]: 100%
inhibition [43]: -1.45%
inhibition [44]: 16%
inhibition [45]: -7.57%

Cc1nc(Cc2cccc(C(F)(F)F)c2)sc1-c1ccc(C(N)=O)nc1 [TP-024n]
residual activity [1]: 96%
residual activity [2]: 87%
residual activity [3]: 100%
residual activity [4]: 96%
residual activity [5]: 100%
residual activity [6]: 76%
residual activity [7]: 91%
residual activity [8]: 97%
residual activity [9]: 99%
residual activity [10]: 99%
residual activity [11]: 93%
residual activity [12]: 100%
residual activity [13]: 82%
residual activity [14]: 81%
residual activity [15]: 100%
residual activity [16]: 100%
residual activity [17]: 100%
residual activity [18]: 100%
residual activity [19]: 100%
residual activity [20]: 100%
residual activity [21]: 95%
residual activity [22]: 100%
residual activity [23]: 100%
residual activity [24]: 100%
residual activity [25]: 41%
residual activity [26]: 88%
residual activity [27]: 100%
residual activity [28]: 96%
residual activity [29]: 92%
residual activity [30]: 94%
residual activity [31]: 87%
residual activity [32]: 100%
residual activity [33]: 99%
residual activity [34]: 91%
residual activity [35]: 100%
residual activity [36]: 100%
residual activity [37]: 95%
residual activity [38]: 100%
residual activity [39]: 100%
residual activity [40]: 100%
residual activity [41]: 100%
residual activity [42]: 100%
inhibition [43]: 4.01%
inhibition [44]: 3.47%
inhibition [45]: 10%
